Patent publication US11833146B2, “Dementia therapeutic agent combining pyrazoloquinoline derivative and donepezil” (Eisai R&D Management Co., Ltd., priority 2017, dated 2023)

Tested on: rats with scopolamine-induced cognitive impairment
Assay: Novel object recognition test using rats with scopolamine-induced cognitive impairment
Format: in vivo, rat (male Long Evans)
Conditions: for effect on the percentage of exploration of the novel object (in words): vs disease control group, p<0.05; for percentage of exploration of the novel object in T2: scopolamine 0.7 mg/kg s.c., mean±standard error
Text: [Test Example 1] Novel Object Recognition Test Using Rats with Scopolamine-Induced Cognitive Impairment
Acetylcholine nervous system disorder has been reported in Alzheimer's disease and Lewy body dementia (Whitehouse et al., Science, 1982, vol. 215, p. 1237, Shimada et al., Neurology, vol. 73, p. 273, 2009, Tiraboschi et al., Neurology 54 (2000) 407-411, Peny et. al., NeuroReport, vol. 5, pp. 747-749 (1994)), and scopolamine-administered animals are utilizable as an animal model for Alzheimer's disease and Lewy body dementia.
Scopolamine is a muscarine receptor inhibitor which blocks acetylcholine nervous system transmission.
6-week-old male Long Evans rats (Institute for Animal Reproduction) were subjected to the test. A habituation process to the experimental procedure was carried out once per day for 2 days prior to the test. In the habituation process, a vehicle was administered to the rats, and then the rats were placed in an empty test apparatus (40 cm×30 cm×45 cm height) and allowed to explore for 3 minutes, and after then placed in a waiting chamber (13 cm×30 cm×45 cm height) for about 1 minute, they were returned to the empty test apparatus again and left for 5 minutes.
An acquisition trial (T1) was carried out on the day of the test. Compound (I) was orally administered 2 hours before T1. Donepezil hydrochloride was orally administered 1 hour before T1. Scopolamine (Wako Pure Chemical Industries, Ltd.) was subcutaneously administered 30 minutes before T1 at a dose of 0.7 mg/kg. In T1, the rats were habituated to the empty test apparatus for 3 minutes and then placed in the waiting chamber. After setting two identical objects in the test apparatus, the rats were returned into the test apparatus again and allowed to freely explore the two identical objects for 5 minutes. The rats were then returned into their rearing cages. After 2 hours, a retention trial (T2) was carried out. The rats were placed in the empty test apparatus for 3 minutes for habituation, and were then transferred into the waiting chamber. After setting an object used in T1 (“familiar” object) and an object not used in T1 (“novel” object) in the test apparatus, the rats were again returned into the test apparatus and allowed to freely explore these objects for 3 minutes. The objects were wiped with a wet wipe impregnated with ethanol after each experiment so as to leave no trace of odor. The behaviors of the rats during T1 and T2 were recorded by a digital video camera, and the total exploration time for each object was manually measured using a stopwatch. Exploratory behavior was defined as the behavior in which the rat brings its nose within 2 cm of the object and directs its nose toward the object.
In the novel object recognition test, the percentage of exploration of the novel object in T2 is considered to be an index for amnesia, reflecting discrimination between the familiar object and the novel object. The percentage of exploration of the novel object was calculated by the following formula. The percentage of exploration of the novel object (%)=N/(N+F)×100 F: time spent in exploring the familiar object N: time spent in exploring the novel object
Rats whose total time spent in exploring the objects during T1 or T2 was 10 seconds or less or rats whose percentage of the time spent in exploring either of the objects during T1 was not less than 70% or not more than 30% of the total exploration time were excluded from the data analysis.
The results were expressed as mean±standard error. The difference between the normal control group untreated with scopolamine and the disease control group treated with scopolamine was analyzed by an unpaired t-test (significant difference: *). The difference between the disease control group and the single drug-treated group was analyzed by Dunnett-type multiple comparison test (significant difference: #).

| Compound | effect on the percentage of exploration of the novel object (in words) (1 mg/kg) | effect on the percentage of exploration of the novel object (in words) (3.3 mg/kg) | percentage of exploration of the novel object in T2 (Table 5, Compound (I) 1 mg/kg alone, oral) [%] | effect on the percentage of exploration of the novel object (in words) (0.03 mg/kg) | effect on the percentage of exploration of the novel object (in words) (0.3 mg/kg) | percentage of exploration of the novel object in T2 (Table 3, Donepezil 0.03 mg/kg oral 1 h before T1) [%] | percentage of exploration of the novel object in T2 (Table 4, Donepezil 0.1 mg/kg oral 1 h before T1) [%] | percentage of exploration of the novel object in T2 (Table 4, Donepezil 0.3 mg/kg oral 1 h before T1, # significant vs disease control) | percentage of exploration of the novel object in T2 (Table 5, Donepezil 0.03 mg/kg alone, oral) [%] |
| --- | --- | --- | --- | --- | --- | --- | --- | --- | --- |
| COc1ncc(C)c(-c2ccc3c(c2)[nH]c(=O)c2cnn([C@H]4CCOC4)c23)c1C [Compound (I), (S)-7-(2-methoxy-3,5-dimethylpyridin-4-yl)-1-(tetrahydrofuran-3-yl)-1H-pyrazolo[4,3-c]quinoline-4(5H)-one] | did not exhibit a significant effect | significant ameliorative effect | 64.9 ± 2.2 |  |  |  |  |  |  |
| COc1cc2c(cc1OC)C(=O)C(CC1CCN(Cc3ccccc3)CC1)C2 (stereo not drawn) [Donepezil, donepezil] |  |  |  | did not exhibit a significant effect | significant ameliorative effect | 62.7 ± 3.6 | 66.2 ± 4.0 | 70.4 ± 4.8# % | 57.8 ± 4.0 |
